Assay results from patent US3985758A, “1,4-Dihydropyridine derivatives” (Yamanouchi Pharmaceutical Co., Ltd., priority 1973, dated 1976).
≈ marks a conversion by molar mass, not a printed value. Where a name gives a salt, the structure may show the parent alone. Read-outs that look alike come from different tables or passages of the source.

How the values were obtained:
[1] = tested on: guinea-pig ileum; test: Spasmolytic activity in isolated guinea-pig ileum (Magnus apparatus); conditions: Cavia porcellus, ±S.E.
Procedure: Methods: Isolated guinea-pig ileum was suspended in Tyrodes solution by use of Magnus apparatus and the movements of the muscle were recorded in a kymograph by an isotonic lever.

[2] = tested on: vertebral and femoral blood flow; test: Vertebral and femoral blood flow in anesthetized dogs; format: in vivo, mongrel dog; conditions: 0.01 mg/kg i.v. (0.01 or 0.03 mg/kg); for Blood pressure change (Δ mmHg): femoral artery; for Separation ratio (percent increase of vertebral blood flow / that of femoral blood flow): significance vs SKF 24260
Procedure: Vertebral and femoral blood flow in anesthetized dogs.
Mongrel dogs of both sexes weighing from 12 to 27 kg were anesthetized with sodium pentobarbitol (30 mg/kg i.v.). In all experiments, trachea was cannulated and the animals were artificially ventilated with room air. Blood pressure in cannulated femoral artery was measured by means of a pressure transducer (Nihon Kohden, MPU 0.5). Vertebral and femoral blood flow were measured by a noncannulating electromagnetic flowmeter (Nihon Kohden, MF-25) positioned around the vessels. Recordings were made on an ink-writing polygraph (Nihon Kohden, RM-150 or RM-85). The test compounds were injected at a dose of 0.01 mg/kg into femoral vein.

[3] = Solubility in water at 25° C; format: physicochemical
[4] = in vivo; conditions: dog, iv
[5] = tested on: anesthetized dogs
[6] = tested on: femoral artery; test: Direct vasodilating effect on femoral artery, constant volume perfusion; format: in vivo, mongrel dog; conditions: intra-arterial; ±SE; maximum response to papaverine 3000 μg i.a. = 100%
From the text: For the analysis of the selective effect on vasculature by the drugs, direct effect on cerebral (vertebral artery) and peripheral (femoral artery) vascular bed were studied by the method of the constant volume perfusion.
(§1) Heparin (1000 μ/Kg, i.v.) was used as an anticoagulant. The methods for perfusion of each artery were as following: 1) For the vertebral artery, the arterial blood led from the left common carotid artery was collected by the tygon tubing and perfused by the Sigma-motor pump (Mippleport N.Y. T-8) into the right vertebral artery. 2) For the femoral artery, the arterial blood led from the proximal femoral artery was perfused by the Sigma-motor pump into the distal femoral artery. […] All drugs were given into a rubber tube connected close to the each arterial cannula by a microinjector (Jintan Terumo, NSN-100).

[7] = tested on: mice; test: in vivo; conditions: i.v.; mice
Procedure: (§2) LD50 was determined by using mice.
(§3) 2. Acute toxicity in mice
(§4) Male ICR weighing 25 to 32 g were used. The test compounds were injected into tail vein and LD 50 values were determined.

[8] = in vivo; conditions: mouse, in vivo, iv
Procedure: as §2, §3, §4

[9] = tested on: vertebral artery; test: Direct vasodilating effect on vertebral artery, constant volume perfusion; format: in vivo, mongrel dog; conditions: intra-arterial
From the text: as §1

[10] = U.S. Pat. No. 3,511,837; cited from earlier work
[11] = cited from earlier work

COC(=O)C1=C(C)NC(C)=C(C(=O)OCCN(C)Cc2ccccc2)C1c1cccc([N+](=O)[O-])c1 (stereo not drawn) [Example 2, 2,6-dimethyl-4-(3'-nitrophenyl)-1,4-dihydropyridine-3,5-dicarboxylic acid 3-β-(N-benzyl-N-methylamino)ethyl ester 5-methyl ester hydrochloride]
IC50 ([1]; read-out: Spasmolytic activity, 50% inhibition of contractile response, Acetylchloline 10^-7 g/ml): 5.2 ng/mL | IC50 ([1]; read-out: Spasmolytic activity, 50% inhibition of contractile response, BaCl2 2×10^-4 g/ml): 1.9 ng/mL | IC50 ([1]; read-out: Spasmolytic activity, 50% inhibition of contractile response, Histamine 10^-7 g/ml): 1.8 ng/mL | Femoral blood flow (FBF %) [2]: 51 ± 5.8% | Vertebral blood flow (VBF Δ %) [2]: 200 ± 27.3 Δ % | Blood pressure change (Δ mmHg) [2]: -29 ± 3.6 Δ mmHg | Separation ratio (percent increase of vertebral blood flow / that of femoral blood flow) [2]: 4.19 ± 0.69 | pH (of solubility determination) ([3]; compounds of the present invention, 25° C): 3.92 | solubility ([3]; compounds of the present invention, 25° C, at the given pH, read-out: Solubility): 4900 µg/mL | LD50 [4]: 6.1 mg/kg | Heart rate (Δbeats/min.±SE) ([5]; 0.0003 mg/Kg i.v.): 4±1.3 Δbeats/min. | Mean blood pressure (ΔmmHg±SE) ([5]; 0.0003 mg/Kg i.v.): -1±0.6 ΔmmHg | Vertebral blood flow (Δ%±SE) ([5]; 0.0003 mg/Kg i.v.): 27±4.4 Δ% | Heart rate (Δbeats/min.±SE) ([5]; 0.001 mg/Kg i.v.): 12±2.2 Δbeats/min. | Mean blood pressure (ΔmmHg±SE) ([5]; 0.001 mg/Kg i.v.): -7±1.5 ΔmmHg | Vertebral blood flow (Δ%±SE) ([5]; 0.001 mg/Kg i.v.): 61±9.5 Δ% | Heart rate (Δbeats/min.±SE) ([5]; 0.003 mg/Kg i.v.): 18±2.0 Δbeats/min. | Mean blood pressure (ΔmmHg±SE) ([5]; 0.003 mg/Kg i.v.): -14±2.2 ΔmmHg | Vertebral blood flow (Δ%±SE) ([5]; 0.003 mg/Kg i.v.): 132±13.8 Δ% | Heart rate (Δbeats/min.±SE) ([5]; 0.01 mg/Kg i.v.): 25±5.3 Δbeats/min. | Mean blood pressure (ΔmmHg±SE) ([5]; 0.01 mg/Kg i.v.): -29±3.6 ΔmmHg | Vertebral blood flow (Δ%±SE) ([5]; 0.01 mg/Kg i.v.): 200±27.3 Δ% | Vasodilation ED50, femoral artery [6]: 0.86 ± 0.11 µg | LD50 [7]: 20.7 mg/kg | LD50 [8]: 20.7 mg/kg | Selectivity ratio (ED50 in femoral artery/ED50 in vertebral artery) ([9]; anesthetized dogs): 1.30 | Vasodilation ED50, vertebral artery ([9]; ±SE, maximum response to papaverine 3000 μg i.a. = 100%): 0.66 ± 0.20 µg

CCOC(=O)C1=C(C)NC(C)=C(C(=O)OCC)C1c1ccccc1C(F)(F)F [SKF 24260, 3,5-dicarbethoxy-1,4-dihydro-2,6-dimethyl-4-(2-trifluoromethylphenyl) pyridine, reference compound]
Femoral blood flow (FBF %) [2]: 165 ± 40% | Vertebral blood flow (VBF Δ %) [2]: 144 ± 17.7 Δ % | Blood pressure change (Δ mmHg) [2]: -44 ± 4.8 Δ mmHg | Separation ratio (percent increase of vertebral blood flow / that of femoral blood flow) [2]: 0.93 ± 0.11 | pH (of solubility determination) ([3]; known compounds, 25° C): 5.40 | solubility ([3]; known compounds, 25° C, at the given pH, read-out: Solubility): 10 µg/mL (≈ 25.2 µM) | solubility ([3]; known compounds, pH 4.00, 25° C, read-out: Solubility at pH 4.00): 10 µg/mL (≈ 25.2 µM) | Hypotensive activity [10]: shows hypotensive activity | LD50 [8]: 0.8 mg/kg | Water-solubility (in words) [11]: very poorly water-soluble
